Test results taken from the supplement of paper PMC10307832.

Columns and labels:
Assay in all cases: relative viability (nuclei count vs DMSO), 5 days (fraction); higher = more cells survive
A-427 = system: A-427
Procedure, shortened: (§1)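 Relative viability divides the nuclei count in treated wells by that in vehicle wells. Lung cancer cell lines were seeded in 1536-well plates, dosed by pin tool the next day, and fixed and stained after 5 days in one step with final 0.05% Triton X-100, 1% formaldehyde and 1 ug/ml Hoechst. Dosing was a single drug or a fixed anchor-drug dose plus five library-drug doses (not always all listed) in √10 steps, and values are medians of duplicate plates imaged at 4×.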

COR-L 105 = system: COR-L 105
Procedure, shortened: as §1

ChaGo-K-1 = system: ChaGo-K-1
Procedure, shortened: as §1

EKVX = system: EKVX
Procedure, shortened: as §1

EMC-BAC-2 = system: EMC-BAC-2
Procedure, shortened: as §1

H3255 = system: H3255
Procedure, shortened: as §1

HCC-366 = system: HCC-366
Procedure, shortened: as §1

LK-2 = system: LK-2
Procedure, shortened: as §1

LOU-NH91 = system: LOU-NH91
Procedure, shortened: as §1

NCI-H1563 = system: NCI-H1563
Procedure, shortened: as §1

NCI-H1666 = system: NCI-H1666
Procedure, shortened: as §1

NCI-H1734 = system: NCI-H1734
Procedure, shortened: as §1

NCI-H1755 = system: NCI-H1755
Procedure, shortened: as §1

NCI-H1975 = system: NCI-H1975
Procedure, shortened: as §1

NCI-H2170 = system: NCI-H2170
Procedure, shortened: as §1

NCI-H23 = system: NCI-H23
Procedure, shortened: as §1

NCI-H441 = system: NCI-H441
Procedure, shortened: as §1

NCI-H520 = system: NCI-H520
Procedure, shortened: as §1

NCI-H596 = system: NCI-H596
Procedure, shortened: as §1

PC-3 [JPC-3] = system: PC-3 [JPC-3]
Procedure, shortened: as §1

SK-MES-1 = system: SK-MES-1
Procedure, shortened: as §1

SW 900 = system: SW 900
Procedure, shortened: as §1

CC(=O)O[C@@]12CO[C@@H]1C[C@H](O)[C@@]1(C)C(=O)[C@H](O)C3=C(C)[C@@H](OC(=O)[C@H](O)[C@@H](NC(=O)OC(C)(C)C)c4ccccc4)C[C@@](O)([C@@H](OC(=O)c4ccccc4)[C@H]21)C3(C)C [Docetaxel] + Cc1nc(Nc2ncc(C(=O)Nc3c(C)cccc3Cl)s2)cc(N2CCN(CCO)CC2)n1 [Dasatinib] (partner 0.075 µM)
relative viability (A-427; first compound 0.0002 µM): 0.721
relative viability (A-427; first compound 0.000632 µM): 0.642
relative viability (A-427; first compound 0.002 µM): 0.445
relative viability (A-427; first compound 0.006325 µM): 0.154
relative viability (A-427; first compound 0.02 µM): 0.141
relative viability (COR-L 105; first compound 0.0002 µM): 0.322
relative viability (COR-L 105; first compound 0.000632 µM): 0.288
relative viability (COR-L 105; first compound 0.002 µM): 0.224
relative viability (COR-L 105; first compound 0.006325 µM): 0.249
relative viability (COR-L 105; first compound 0.02 µM): 0.202
relative viability (ChaGo-K-1; first compound 0.0002 µM): 0.486
relative viability (ChaGo-K-1; first compound 0.000632 µM): 0.429
relative viability (ChaGo-K-1; first compound 0.002 µM): 0.404
relative viability (ChaGo-K-1; first compound 0.006325 µM): 0.257
relative viability (ChaGo-K-1; first compound 0.02 µM): 0.132
relative viability (EKVX; first compound 0.0002 µM): 0.472
relative viability (EKVX; first compound 0.000632 µM): 0.45
relative viability (EKVX; first compound 0.002 µM): 0.296
relative viability (EKVX; first compound 0.006325 µM): 0.264
relative viability (EKVX; first compound 0.02 µM): 0.195
relative viability (EMC-BAC-2; first compound 0.0002 µM): 0.298
relative viability (EMC-BAC-2; first compound 0.000632 µM): 0.232
relative viability (EMC-BAC-2; first compound 0.002 µM): 0.192
relative viability (EMC-BAC-2; first compound 0.006325 µM): 0.228
relative viability (EMC-BAC-2; first compound 0.02 µM): 0.132
relative viability (H3255; first compound 0.0002 µM): 0.378
relative viability (H3255; first compound 0.000632 µM): 0.439
relative viability (H3255; first compound 0.002 µM): 0.276
relative viability (H3255; first compound 0.006325 µM): 0.309
relative viability (H3255; first compound 0.02 µM): 0.252
relative viability (HCC-366; first compound 0.0002 µM): 0.569
relative viability (HCC-366; first compound 0.000632 µM): 0.255
relative viability (HCC-366; first compound 0.002 µM): 0.119
relative viability (HCC-366; first compound 0.006325 µM): 0.0384
relative viability (HCC-366; first compound 0.02 µM): 0.0228
relative viability (LK-2; first compound 0.0002 µM): 0.212
relative viability (LK-2; first compound 0.000632 µM): 0.268
relative viability (LK-2; first compound 0.002 µM): 0.181
relative viability (LK-2; first compound 0.006325 µM): 0.21
relative viability (LK-2; first compound 0.02 µM): 0.113
relative viability (LOU-NH91; first compound 0.0002 µM): 0.553
relative viability (LOU-NH91; first compound 0.000632 µM): 0.533
relative viability (LOU-NH91; first compound 0.002 µM): 0.345
relative viability (LOU-NH91; first compound 0.006325 µM): 0.304
relative viability (LOU-NH91; first compound 0.02 µM): 0.247
relative viability (NCI-H1563; first compound 0.0002 µM): 0.433
relative viability (NCI-H1563; first compound 0.000632 µM): 0.454
relative viability (NCI-H1563; first compound 0.002 µM): 0.423
relative viability (NCI-H1563; first compound 0.006325 µM): 0.406
relative viability (NCI-H1563; first compound 0.02 µM): 0.339
relative viability (NCI-H1666; first compound 0.0002 µM): 0.684
relative viability (NCI-H1666; first compound 0.000632 µM): 0.594
relative viability (NCI-H1666; first compound 0.002 µM): 0.465
relative viability (NCI-H1666; first compound 0.006325 µM): 0.414
relative viability (NCI-H1666; first compound 0.02 µM): 0.284
relative viability (NCI-H1734; first compound 0.0002 µM): 0.46
relative viability (NCI-H1734; first compound 0.000632 µM): 0.286
relative viability (NCI-H1734; first compound 0.002 µM): 0.234
relative viability (NCI-H1734; first compound 0.006325 µM): 0.239
relative viability (NCI-H1734; first compound 0.02 µM): 0.163
relative viability (NCI-H1755; first compound 0.0002 µM): 0.385
relative viability (NCI-H1755; first compound 0.000632 µM): 0.359
relative viability (NCI-H1755; first compound 0.002 µM): 0.306
relative viability (NCI-H1755; first compound 0.006325 µM): 0.286
relative viability (NCI-H1755; first compound 0.02 µM): 0.222
relative viability (NCI-H1975; first compound 0.0002 µM): 0.377
relative viability (NCI-H1975; first compound 0.000632 µM): 0.284
relative viability (NCI-H1975; first compound 0.002 µM): 0.152
relative viability (NCI-H1975; first compound 0.006325 µM): 0.127
relative viability (NCI-H1975; first compound 0.02 µM): 0.107
relative viability (NCI-H2170; first compound 0.0002 µM): 0.6
relative viability (NCI-H2170; first compound 0.000632 µM): 0.574
relative viability (NCI-H2170; first compound 0.002 µM): 0.428
relative viability (NCI-H2170; first compound 0.006325 µM): 0.141
relative viability (NCI-H2170; first compound 0.02 µM): 0.14
relative viability (NCI-H23; first compound 0.0002 µM): 0.838
relative viability (NCI-H23; first compound 0.000632 µM): 0.777
relative viability (NCI-H23; first compound 0.002 µM): 0.483
relative viability (NCI-H23; first compound 0.006325 µM): 0.188
relative viability (NCI-H23; first compound 0.02 µM): 0.0867
relative viability (NCI-H441; first compound 0.0002 µM): 0.621
relative viability (NCI-H441; first compound 0.000632 µM): 0.499
relative viability (NCI-H441; first compound 0.002 µM): 0.235
relative viability (NCI-H441; first compound 0.006325 µM): 0.224
relative viability (NCI-H441; first compound 0.02 µM): 0.148
relative viability (NCI-H520; first compound 0.0002 µM): 0.186
relative viability (NCI-H520; first compound 0.000632 µM): 0.194
relative viability (NCI-H520; first compound 0.002 µM): 0.164
relative viability (NCI-H520; first compound 0.006325 µM): 0.159
relative viability (NCI-H520; first compound 0.02 µM): 0.126
relative viability (NCI-H596; first compound 0.0002 µM): 0.551
relative viability (NCI-H596; first compound 0.000632 µM): 0.6
relative viability (NCI-H596; first compound 0.002 µM): 0.543
relative viability (NCI-H596; first compound 0.006325 µM): 0.397
relative viability (NCI-H596; first compound 0.02 µM): 0.222
relative viability (PC-3 [JPC-3]; first compound 0.0002 µM): 0.94
relative viability (PC-3 [JPC-3]; first compound 0.000632 µM): 0.954
relative viability (PC-3 [JPC-3]; first compound 0.002 µM): 0.762
relative viability (PC-3 [JPC-3]; first compound 0.006325 µM): 0.339
relative viability (PC-3 [JPC-3]; first compound 0.02 µM): 0.16
relative viability (SK-MES-1; first compound 0.0002 µM): 0.326
relative viability (SK-MES-1; first compound 0.000632 µM): 0.316
relative viability (SK-MES-1; first compound 0.002 µM): 0.19
relative viability (SK-MES-1; first compound 0.006325 µM): 0.167
relative viability (SK-MES-1; first compound 0.02 µM): 0.072
relative viability (SW 900; first compound 0.0002 µM): 0.612
relative viability (SW 900; first compound 0.000632 µM): 0.218
relative viability (SW 900; first compound 0.002 µM): 0.171
relative viability (SW 900; first compound 0.006325 µM): 0.221
relative viability (SW 900; first compound 0.02 µM): 0.127
